pKi: −log10 of the molar value.
Experiments:
[1] = target: T1, recombinant human CES1A1 (Homo sapiens, UniProt P23141); assay: Imidapril hydrolase activity (imidaprilat formation) of recombinant CES1A1; assay type: biochemical
T1 construct: purchased BD Gentest (Woburn, MA); host or cells: baculovirus-insect cells
T1 sequence (P23141 18-567): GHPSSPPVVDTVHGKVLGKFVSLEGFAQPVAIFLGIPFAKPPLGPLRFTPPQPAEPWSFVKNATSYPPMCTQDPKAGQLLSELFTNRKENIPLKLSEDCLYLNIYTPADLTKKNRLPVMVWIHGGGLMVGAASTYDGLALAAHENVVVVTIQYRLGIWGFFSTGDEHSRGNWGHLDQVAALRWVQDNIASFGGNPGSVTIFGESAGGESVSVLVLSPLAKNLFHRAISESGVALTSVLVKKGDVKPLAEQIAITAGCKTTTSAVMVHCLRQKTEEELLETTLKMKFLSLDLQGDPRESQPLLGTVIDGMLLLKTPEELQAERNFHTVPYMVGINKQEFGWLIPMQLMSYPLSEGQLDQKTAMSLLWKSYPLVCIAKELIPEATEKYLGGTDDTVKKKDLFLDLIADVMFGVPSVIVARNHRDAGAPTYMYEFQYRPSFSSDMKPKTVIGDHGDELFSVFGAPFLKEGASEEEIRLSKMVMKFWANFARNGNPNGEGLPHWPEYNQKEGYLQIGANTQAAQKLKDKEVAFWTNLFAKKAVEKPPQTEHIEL
Description: (§1) Formation of imidaprilat from imidapril was determined according to the method described previously with a slight modification. The incubation mixture (200 μl of total volume), including the microsomes, 100 mM Tris-HCl buffer (pH 7.4) and inhibitors, was preincubated at 37°C for 2 min. The reaction was initiated by the addition of imidapril (100 μM), followed by incubation of the mixture at 37°C for 15 min. The reaction was terminated by adding 200 μl of ice-cold ethyl acetate and the mixture was next dried under N2. Cetirizine was added as an internal standard. After centrifugation at 15000 g for 5 min, imidaprilat in the supernatant (10 μl) was quantified employing a liquid chromatography-tandem mass spectrometry system. Diamonsil C18 (5 μm,150×2.1 mm) was used as the analytical column, with acetonitrile-0.1% (v/v) formic acid (1∶2, v/v) as the mobile phase at a flow rate of 0.3 mL·min^−1. The calibration curve of imidaprilat in the incubation mixture was linear over a concentration range of 5–1000 ng·ml^−1 (r = 0.9991). Interday and intraday coefficients of variation of the different quality control samples were both less than 10%.
The inhibitory effects of 25 excipients on imidapril and CPT-11 hydrolase activities were investigated. These excipients were classified into 6 groups based on their chemical and physical characteristics: (1) Adhesives: HPC, PVP, CMC-Na, PEG4000, PEG6000 and sodium alginate; (2) Fillers: lactose, MCC and mannitol; (3) Co-solvents: PG, glycerin, PEG200 and PEG400; (4) Surfactants: Tween 20, Tween 80, SLS, S40, F68, Triton X-100, RH40 and EL35; (5) Absorption enhancers: lecithin and oleic acid; (6)Antioxidants: Vit.C and NaHSO3. […] All data were analysed using the mean of duplicate determinations. […]
(§2) The Ki, Km and Vmax values and inhibition types were determined by fitting the kinetic data to a competitive, noncompetitive, uncompetitive or mixed inhibition model by the Enzyme Kinetics Module using SigmaPlot 12.0 (Systat Software, Inc., San Jose, CA). […]

[2] = target: T2, human liver microsomes (HLM) (Homo sapiens, UniProt P23141); assay: Imidapril hydrolase activity (imidaprilat formation) of HLM; assay type: biochemical
T2 construct: Pooled human liver microsomes (HLM) were purchased from BD Gentest; tissue BD Gentest (Woburn, MA); host or cells: pooled human liver microsomes
T2 sequence (P23141 18-567): T1 sequence (P23141 18-567)
Description: as §1, with “The calibration curve of imidaprilat in the incubation mixture was linear over a concentration range of 5–1000 ng·ml^−1 (r = 0.9991). Interday and intraday coefficients of variation of the different quality control samples were both less than 10%.” left out
The inhibitory effects of 25 excipients on imidapril and CPT-11 hydrolase activities were investigated. […] All data were analysed using the mean of duplicate determinations. […]
as §2

[3] = target: T1, recombinant human CES1A1; assay: p-Nitrophenyl acetate hydrolase activity of recombinant CES1A1; assay type: biochemical
Description: (§3) p-Nitrophenyl acetate hydrolase activity was determined according to the methods described previously.
(§4) To compare the inhibitory effects, the enzyme activities at 150 μM p-nitrophenyl acetate were examined. The concentrations of the tested excipients were 500 μM, except that F68, EL35, RH40, lecithin, PVP and Sodium alginate were 100 μg/ml. […] The concentration range of inhibitors was as follows: SLS, 0.02–0.5 μg/ml, RH40, 0.1–5 μg/ml, Tween 20, 0.5–15 μg/ml, and EL 35, 3–40 μg/ml.

[4] = target: T3, recombinant human CES2 (Homo sapiens, UniProt O00748); assay: p-Nitrophenyl acetate hydrolase activity of recombinant CES2; assay type: biochemical
T3 construct: purchased BD Gentest (Woburn, MA); host or cells: baculovirus-insect cells
T3 sequence (O00748 27-559): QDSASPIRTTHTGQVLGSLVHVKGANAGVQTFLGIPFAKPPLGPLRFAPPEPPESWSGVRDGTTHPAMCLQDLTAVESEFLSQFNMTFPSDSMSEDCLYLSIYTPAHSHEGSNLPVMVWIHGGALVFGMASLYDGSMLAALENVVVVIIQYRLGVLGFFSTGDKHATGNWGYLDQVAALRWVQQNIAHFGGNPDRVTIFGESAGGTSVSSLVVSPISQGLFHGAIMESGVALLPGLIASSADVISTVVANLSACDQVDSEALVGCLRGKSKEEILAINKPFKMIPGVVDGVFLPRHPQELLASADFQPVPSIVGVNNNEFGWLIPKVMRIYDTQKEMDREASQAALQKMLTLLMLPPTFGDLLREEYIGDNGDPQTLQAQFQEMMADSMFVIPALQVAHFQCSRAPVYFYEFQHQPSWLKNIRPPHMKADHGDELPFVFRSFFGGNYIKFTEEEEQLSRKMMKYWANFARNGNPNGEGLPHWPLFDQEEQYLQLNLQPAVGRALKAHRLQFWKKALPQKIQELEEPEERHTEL
Description: as §3, §4

[5] = target: CES1A1 and CES2; parameters: method as in PMID 20810539; conditions: human CES enzyme activity; isoform per drug not stated; read-out: inhibition constant (Ki); cited from earlier work
[6] = 150 μM p-nitrophenyl acetate, excipients 500 μM except F68, EL35, RH40, lecithin, PVP, sodium alginate 100 μg/ml

imidapril hydrolase activity, percentage of control ([1]; 100 μM imidapril, excipients 500 μM except F68, EL35, RH40, lecithin, PVP, sodium alginate 100 μg/ml, control 1.83 nmol/min/mg) [%] | inhibition type, imidapril hydrolase activity ([1]; recombinant CES1A1) | Ki, imidapril hydrolase activity ([1]; recombinant CES1A1, imidapril 25-200 μM, mean ± S.E.) [µg/mL] | inhibition type, imidapril hydrolase activity [2] | p-nitrophenyl acetate hydrolase activity, percentage of control [3, 6] [%] | IC50, p-nitrophenyl acetate hydrolase activity ([3]; 150 μM substrate) [µg/mL] | p-nitrophenyl acetate hydrolase activity, percentage of control [4, 6] | IC50, p-nitrophenyl acetate hydrolase activity ([4]; 150 μM substrate) [µg/mL] | SMILES | pKi [5]
2.9 | competitive-type | 0.04 ± 0.01 | competitive-type | 3.6 | 0.20 | 30–60% | 0.30 | CCCCCCCCCCCCOS(=O)(=O)[O-].[Na+] [SLS, sodium lauryl sulphate] | –
– | – | – | – | – | – | – | – | CCC(C)(C)C(=O)O[C@H]1C[C@@H](C)C=C2C=C[C@H](C)[C@H](CC[C@@H]3C[C@@H](O)CC(=O)O3)[C@H]21 [simvastatin] | 6.96
– | – | – | – | – | – | – | – | Cc1c(C)c2c(c(C)c1O)CCC(C)(COc1ccc(CC3SC(=O)NC3=O)cc1)O2 (stereo not shown) [troglitazone] | 6.21
